Reference: ChEMBL document CHEMBL1132977 (J Med Chem, 2000)

Biological target: Peptidyl-prolyl cis-trans isomerase FKBP1A (Homo sapiens, UniProt P62942, F36V)
Assay: Binding affinity for Mutant F36V-FK506 binding protein by competitive assay based on fluorescence polarization.

Sequence of Peptidyl-prolyl cis-trans isomerase FKBP1A (P62942 2-108 F37V limits assumed): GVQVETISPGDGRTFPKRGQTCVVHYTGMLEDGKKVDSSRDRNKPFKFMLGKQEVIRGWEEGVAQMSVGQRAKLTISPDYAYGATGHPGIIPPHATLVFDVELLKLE

IC50 [nM]	SMILES
40	CC[C@H](C(=O)N1CCCC[C@H]1C(=O)O[C@H](CCc1ccc(OC)c(OC)c1)c1cccc(OCC(=O)O)c1)c1ccccc1
1.8	CC[C@H](C(=O)N1CCCC[C@H]1C(=O)O[C@H](CCc1ccc(OC)c(OC)c1)c1cccc(OCC(=O)O)c1)c1cc(OC)c(OC)c(OC)c1
19	C=CC[C@@H](C(=O)N1CCCC[C@H]1C(=O)OC(CCc1ccc(OC)c(OC)c1)c1cccc(OCC(=O)O)c1)c1cc(OC)c(OC)c(OC)c1 (stereo partly drawn)
94	COc1ccc(CCC(OC(=O)[C@@H]2CCCCN2C(=O)[C@@H](C)c2ccccc2)c2cccc(OCC(=O)O)c2)cc1OC (stereo partly drawn)
3.8	CCC[C@H](C(=O)N1CCCC[C@H]1C(=O)OC(CCc1ccc(OC)c(OC)c1)c1cccc(OCC(=O)O)c1)c1cc(OC)c(OC)c(OC)c1 (stereo partly drawn)
126	COc1ccc(CCC(OC(=O)[C@@H]2CCCCN2C(=O)[C@H](CC2CC2)c2cc(OC)c(OC)c(OC)c2)c2cccc(OCC(=O)O)c2)cc1OC (stereo partly drawn)
150	COc1ccc(CCC(OC(=O)[C@@H]2CCCCN2C(=O)[C@H](c2ccccc2)C(C)C)c2cccc(OCC(=O)O)c2)cc1OC (stereo partly drawn)
133	CC[C@@H](C(=O)N1CCCC[C@H]1C(=O)OC(CCc1ccc(OC)c(OC)c1)c1cccc(OCC(=O)O)c1)c1ccccc1 (stereo partly drawn)
65	COc1ccc(CCC(OC(=O)[C@@H]2CCCCN2C(=O)[C@@H](c2cc(OC)c(OC)c(OC)c2)C(C)C)c2cccc(OCC(=O)O)c2)cc1OC (stereo partly drawn)
4.4	COc1ccc(CCC(OC(=O)[C@@H]2CCCCN2C(=O)[C@@H](CC2CC2)c2cc(OC)c(OC)c(OC)c2)c2cccc(OCC(=O)O)c2)cc1OC (stereo partly drawn)
43	CCC[C@@H](C(=O)N1CCCC[C@H]1C(=O)OC(CCc1ccc(OC)c(OC)c1)c1cccc(OCC(=O)O)c1)c1cc(OC)c(OC)c(OC)c1 (stereo partly drawn)
5.8	COc1ccc(CCC(OC(=O)[C@@H]2CCCCN2C(=O)[C@H](c2cc(OC)c(OC)c(OC)c2)C(C)C)c2cccc(OCC(=O)O)c2)cc1OC (stereo partly drawn)
19	COc1ccc(CCC(OC(=O)[C@@H]2CCCCN2C(=O)[C@@H](c2ccccc2)C(C)C)c2cccc(OCC(=O)O)c2)cc1OC (stereo partly drawn)
1.5	C=CC[C@H](C(=O)N1CCCC[C@H]1C(=O)OC(CCc1ccc(OC)c(OC)c1)c1cccc(OCC(=O)O)c1)c1cc(OC)c(OC)c(OC)c1 (stereo partly drawn)
1530	COc1ccc(CC[C@@H](OC(=O)[C@@H]2CCCCN2C(=O)Cc2ccccc2)c2cccc(OCC(=O)O)c2)cc1OC
590	COc1ccc(CCC(OC(=O)[C@@H]2CCCCN2C(=O)[C@H](C)c2ccccc2)c2cccc(OCC(=O)O)c2)cc1OC (stereo partly drawn)
187	CC[C@@H](C(=O)N1CCCC[C@H]1C(=O)OC(CCc1ccc(OC)c(OC)c1)c1cccc(OCC(=O)O)c1)c1cc(OC)c(OC)c(OC)c1 (stereo partly drawn)
273	COc1ccc(CCC(OC(=O)[C@@H]2CCCCN2C(=O)C(c2ccccc2)c2ccccc2)c2cccc(OCC(=O)O)c2)cc1OC (stereo partly drawn)
